Here are results for 64 compounds from PubChem BioAssay AID1418 (Emory University Molecular Libraries Screening Center, 2008).

The structures appear in SMILES notation. Calls of active or inactive are those of the source. How the calls were made is not given here.

In general, IC50 refers to the concentration that inhibits the measured activity by half.

For the test, the target named is Induced myeloid leukemia cell differentiation protein Mcl-1 (Homo sapiens) (UniProt Q07820). The experiment in a line: blockers of Bid binding to Mcl-1 – biochemical, TR-FRET, dose response (AID 1418). The note with it: Mcl-1/Bid peptide binding, TR-FRET (europium/Dy647), 2 hr. Background: Time-resolved FRET reads energy transfer from a long-lived donor to a nearby acceptor.
Chain of Induced myeloid leukemia cell differentiation protein Mcl-1 (Homo sapiens) (Q07820 whole entry, looked up): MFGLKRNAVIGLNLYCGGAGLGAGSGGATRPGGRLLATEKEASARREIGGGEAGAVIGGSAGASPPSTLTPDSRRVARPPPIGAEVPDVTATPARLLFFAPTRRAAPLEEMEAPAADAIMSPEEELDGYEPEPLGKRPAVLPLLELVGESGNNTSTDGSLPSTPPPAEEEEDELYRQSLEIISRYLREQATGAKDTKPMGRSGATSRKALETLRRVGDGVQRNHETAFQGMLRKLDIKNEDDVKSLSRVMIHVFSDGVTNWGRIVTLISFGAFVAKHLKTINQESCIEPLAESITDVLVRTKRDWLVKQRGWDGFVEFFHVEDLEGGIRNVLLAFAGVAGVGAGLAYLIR

`COc1ccc(N2CCN(C(=O)c3ccc4c(c3)OCO4)CC2)cc1`: the IC50 is > 54 µM (inactive).
Then `O=C(CP(=O)(c1ccccc1)c1ccccc1)Nc1nc2ccc(Cl)cc2s1`, with > 54 µM (inactive); and `COc1cc(/C=C2/SC(=S)NC2=O)ccc1OS(=O)(=O)c1ccc(C)cc1`, with 9.94 µM.
Then `CN(C)S(=O)(=O)c1cc(S(=O)(=O)N(C)C)c(Cl)cc1N`, with > 54 µM (inactive); and `O=C1C(=Cc2cccn2-c2ccc(O)cc2)C(=O)c2ccccc21`, with 2.53 µM.
Take `C=C(C(=O)c1ccccc1)C(C(=C)C(=O)c1ccccc1)c1ccc(OC)cc1`: the IC50 is > 54 µM (inactive).
The result for `Cc1cc(=O)oc2cc(OCc3ccc(C(=O)OCC(=O)Nc4ccc(N(C)C)cc4)cc3)ccc12` reads 0.7 µM.
The result for `COCCN1C(=O)C(=O)/C(=C(/O)c2ccc(S(=O)(=O)N3CCOCC3)cc2)C1c1cccc(Cl)c1` (centres undefined) reads > 54 µM (inactive).
The result for `O=C(CCCN1C(=O)c2ccccc2C1=O)Nc1ccccc1` reads > 54 µM (inactive); that for `CC(/C=C1\SC(=S)N(NS(=O)(=O)c2ccc(C)cc2)C1=O)=C\c1ccccc1`, 25 µM.
As to `CN(CCOC(=O)C1c2ccccc2Oc2ccccc21)C(C)(C)C`, the IC50 was > 54 µM (inactive).
On to `O=C(Nc1ccc(F)cc1)N1CCCN(c2ccc(C(F)(F)F)cn2)CC1`, for which the IC50 is > 54 µM (inactive).
Then `COc1ccc(NC(=O)c2cc(C3CC3)on2)c(OC)c1`, with > 54 µM (inactive); and `O=[N+]([O-])c1ccc(N/N=C/c2cn(Cc3ccc(F)cc3)c3ccccc23)nc1`, with > 54 µM (inactive).
Then `Cc1ccc(C)c(OCC(=O)Nc2ccc3c(c2)OCO3)c1C`, with > 54 µM (inactive); and `O=C(Cc1ccc(F)cc1)Nc1nnc(SCC(=O)NC2CCCC2)s1`, with > 54 µM (inactive); and `O=C(CSc1nc(-c2ccccc2)nc2c1Cc1ccccc1O2)Nc1ccc(C(=O)O)cc1`, with 3.03 µM.
The result for `O=C(N=Nc1c(O)[nH]c2ccc([N+](=O)[O-])cc12)c1cc(-c2ccccc2Cl)nc2ccccc12` reads 0.81 µM; that for `COc1ccc(C(=O)Nc2cccc(C)c2)cc1S(=O)(=O)N1CCOCC1`, > 54 µM (inactive); that for `O=C(O)CCCN1C(=O)/C(=C\c2ccc(-c3nc4ccccc4s3)o2)SC1=S`, 0.53 µM.
Turning to `CCOC(=O)c1cccc(NC(=O)CCNS(=O)(=O)c2ccc3c(c2)CCN3C(=O)CC)c1`, the IC50 was > 54 µM (inactive).
The result for `Nc1c(C(=O)NCC2CCCO2)sc2nc3c(c(-c4ccco4)c12)CC/C3=C\c1ccco1` (centres undefined) reads > 54 µM (inactive).
Then `CNC(=S)Nc1cc(C)ccc1OC(F)F`, with > 54 µM (inactive); and `COc1ccc(-c2nc3ccccc3c(=O)n2CCOc2cccc(C)c2C)cc1`, with > 54 µM (inactive); and `CCOC(=O)c1cc(C#N)c(SCC(=O)OC)[nH]c1=O`, with > 54 µM (inactive).
As for `COCCN1Cc2cccc(C(=O)Nc3cccc(C)c3C)c2C1=O`, the IC50 was > 54 µM (inactive).
The result for `CC12CCC(C(=O)Nc3ccccc3-n3cccc3)(CC1=O)C2(C)C` (centres undefined) reads > 54 µM (inactive); that for `O=C(NC1CCCC1)c1csc2c1CCCC2`, > 54 µM (inactive); that for `CC(C)(C)NC(=O)c1sccc1C(=O)O`, > 54 µM (inactive).
Then `Cc1cc(=O)oc2cc(OCC(=O)N/N=C/c3cc([N+](=O)[O-])ccc3O)ccc12`, with 5.58 µM; and `C/C(C/C(C)=C1/SC(=S)NC1=O)=C1\SC(=S)NC1=O`, with 1.25 µM.
As to `N#Cc1ccc(CO/N=C/c2ccccc2)cc1`, the IC50 is > 54 µM (inactive).
Then `COc1ccc(NC(=O)CN2CCOCC2)cc1`, with > 54 µM (inactive); and `Cc1ccc(NC(=O)CN2C(=O)S/C(=C/c3ccc(-c4cc(C(=O)O)ccc4C)o3)C2=O)cc1C`, with 2.69 µM.
On to `COc1ccc2nc(N3C(=O)/C(=C/c4ccc(Cl)cc4)NC3=S)sc2c1`, for which the IC50 was 1.75 µM.
Consider `COc1ccc(NC(=O)Cn2nnc(-c3ccccc3NC(=O)c3ccco3)n2)cc1`, for which the IC50 is 6.22 µM.
The result for `COc1ccccc1CN1CCN(C(=O)Cc2ccccc2)CC1` reads > 54 µM (inactive); that for `O=[N+]([O-])c1cc(Cl)cc(/C=N/NC(=S)Nc2ccc(S(=O)(=O)N3CCOCC3)cc2)c1O`, > 54 µM (inactive).
In the case of `CCOC(=O)Nc1ccc2c(c1)N(C(=O)OCCN(C)C)c1ccccc1CC2`, the IC50 was > 54 µM (inactive).
The result for `CN1CCN(C(=S)c2cn(Cc3ccccc3F)c3ccccc23)CC1` reads > 54 µM (inactive); that for `Cc1csc(NC(=O)C2CCN(S(=O)(=O)c3cccs3)CC2)n1`, > 54 µM (inactive).
The result for `NC(=S)Nc1ccc(F)cc1F` reads > 54 µM (inactive); that for `COC(=O)C(Cc1csc2ccc(Cl)cc12)NC(=O)c1ccc(Cl)cc1` (centres undefined), > 54 µM (inactive).
Take `Fc1cc(F)c2nc(Nc3nc4cc5c(cc4s3)OCO5)sc2c1`: the IC50 was 0.59 µM.
Then `CC1CC(C)CN(CCOCCSc2ccccc2)C1` (centres undefined), with > 54 µM (inactive); and `O=c1[nH]c(=O)n(CCc2ccccc2)c(O)c1C=NCc1ccc2c(c1)OCO2`, with “inactive”; and `Cc1cccc(-n2c(SCC(=O)Nc3nnc(C)s3)nnc2-c2ccoc2C)c1`, with > 54 µM (inactive).
Then `CCOC(=O)C1CCCN(Cc2ccccc2OCC)C1` (centres undefined), with > 54 µM (inactive); and `O=C(COC(=O)c1cc[n+]([O-])cc1)Nc1ccccc1Cl`, with > 54 µM (inactive).
The result for `CC(=O)OCCn1c2nc(=O)[nH]c(=O)c-2nc2cc(C)c(C)cc21` reads 18.8 µM.
For the compound `O=c1oc2c(O)c(O)cc3c(=O)oc4c(O)c(O)cc1c4c23`, the IC50 was 0.57 µM.
The result for `Cc1cccc(N2CCN(C(=O)Cc3ccc(-n4c(=O)[nH]c5ccsc5c4=O)cc3)CC2C)c1` (centres undefined) reads > 54 µM (inactive); that for `O=C(Cn1nc(C(=O)O)c2ccccc2c1=O)Nc1ccc2c(c1)C(=O)c1ccccc1C2=O`, 2.93 µM; that for `COc1cc(Cl)c(C)cc1NC(=O)CCCn1c(=O)oc2ccccc21`, > 54 µM (inactive).
Then `O=C1N=c2ccccc2=C1c1c(O)n(-c2cccc(F)c2)[nH]c1=O`, with 1.56 µM; and `N=C1S/C(=C\c2ccc(-c3cccc(Cl)c3)o2)C(=O)N1c1nccs1`, with 1.05 µM; and `O=C1CSC(=S)N1/N=C/c1ccc(O)c(O)c1O`, with 1.17 µM.
The result for `Cc1c(C(=O)OCc2ccccc2)[nH]c2c1C(=O)CC(c1ccco1)C2` (centres undefined) reads > 54 µM (inactive); that for `Cc1ccc(C(C)C)cc1NC(=O)Nc1ccc([N+](=O)[O-])cc1`, > 54 µM (inactive).
As for `CCOc1cc(N2CCOCC2)c(OCC)cc1NC(=O)c1cc(-c2ccco2)nc2ccccc12`, the IC50 is 12.5 µM.
The result for `c1ccc(Oc2nc3ccccc3n3cccc23)cc1` reads > 54 µM (inactive).
The result for `CCOC(=O)c1c(NC(=O)CN(C)C)sc(C(=O)N(CC)CC)c1C` reads > 54 µM (inactive).
Regarding `CC(C)(C)c1nc2ccccc2c2nnc(SCC(=O)Nc3nc4ccccc4s3)n12`, the IC50 was 2.03 µM.
Consider `O=C(Nc1ccc(Cl)cc1)N1CCc2[nH]c3ccccc3c2C1`, for which the IC50 was > 54 µM (inactive).
